Measured values published in ChEMBL document CHEMBL1201862, “PubChem BioAssay data set” (2004).
Calls of active or inactive are those of the source.

Legend:
Galanin receptor type 3 = Galanin receptor type 3 (Homo sapiens, UniProt O60755); experiment: Fluorescence-based cell-based primary high throughput dose response assay to identify antagonists of the Galanin Receptor 3 (GalR3).; assay type: functional
cells = assay type: functional, cell-based; settings: HEK-CNG
Beta-lactamase [1] = target: Beta-lactamase (Salmonella choleraesuis (strain SC-B67), UniProt Q5J463); experiment: Epi-absorbance-based counterscreen for selective VIM-2 inhibitors: dose response biochemical high throughput screening assay to identify inhibitors of TEM-1 serine-beta-lactamase.
Chain of Beta-lactamase (Salmonella choleraesuis (strain SC-B67), UniProt Q5J463) (Q5J463 whole entry): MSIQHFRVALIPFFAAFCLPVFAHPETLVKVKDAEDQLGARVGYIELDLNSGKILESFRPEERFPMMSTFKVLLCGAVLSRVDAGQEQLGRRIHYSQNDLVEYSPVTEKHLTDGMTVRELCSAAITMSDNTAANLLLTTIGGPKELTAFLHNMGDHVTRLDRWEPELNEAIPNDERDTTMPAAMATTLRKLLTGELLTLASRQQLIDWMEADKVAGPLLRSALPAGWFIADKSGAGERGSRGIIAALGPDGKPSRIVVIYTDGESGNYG

Beta-lactamase [2] = target: T1, Beta-lactamase (Pseudomonas aeruginosa, UniProt Q79MP6); experiment: IMP-1 metallo-beta-lactamase inhibitors, dose response, selectivity assay for VIM-2 inhibitor project, biochemical, epi-absorbance (AID 1920)
T1 sequence (Q79MP6 whole entry): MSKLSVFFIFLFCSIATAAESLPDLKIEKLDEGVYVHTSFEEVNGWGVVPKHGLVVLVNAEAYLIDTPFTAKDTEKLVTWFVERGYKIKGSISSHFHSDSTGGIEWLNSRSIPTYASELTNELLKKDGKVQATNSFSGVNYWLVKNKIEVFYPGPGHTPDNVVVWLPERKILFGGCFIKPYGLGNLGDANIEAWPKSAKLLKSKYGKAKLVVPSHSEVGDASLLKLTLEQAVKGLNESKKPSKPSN

Beta-lactamase [3] = target: T1, Beta-lactamase; experiment: […] counterscreen for selective VIM-2 inhibitors: dose response biochemical high throughput screening assay to identify inhibitors of IMP-1 metallo-beta-lactamase.
Beta-galactosidase = Beta-galactosidase (Escherichia coli, UniProt Q8VNN2); experiment: Dose response counterscreen for EBI2 assay utilizing the enzyme, b-galactosidase.; assay type: functional
Chain of Beta-galactosidase (Q8VNN2 whole entry): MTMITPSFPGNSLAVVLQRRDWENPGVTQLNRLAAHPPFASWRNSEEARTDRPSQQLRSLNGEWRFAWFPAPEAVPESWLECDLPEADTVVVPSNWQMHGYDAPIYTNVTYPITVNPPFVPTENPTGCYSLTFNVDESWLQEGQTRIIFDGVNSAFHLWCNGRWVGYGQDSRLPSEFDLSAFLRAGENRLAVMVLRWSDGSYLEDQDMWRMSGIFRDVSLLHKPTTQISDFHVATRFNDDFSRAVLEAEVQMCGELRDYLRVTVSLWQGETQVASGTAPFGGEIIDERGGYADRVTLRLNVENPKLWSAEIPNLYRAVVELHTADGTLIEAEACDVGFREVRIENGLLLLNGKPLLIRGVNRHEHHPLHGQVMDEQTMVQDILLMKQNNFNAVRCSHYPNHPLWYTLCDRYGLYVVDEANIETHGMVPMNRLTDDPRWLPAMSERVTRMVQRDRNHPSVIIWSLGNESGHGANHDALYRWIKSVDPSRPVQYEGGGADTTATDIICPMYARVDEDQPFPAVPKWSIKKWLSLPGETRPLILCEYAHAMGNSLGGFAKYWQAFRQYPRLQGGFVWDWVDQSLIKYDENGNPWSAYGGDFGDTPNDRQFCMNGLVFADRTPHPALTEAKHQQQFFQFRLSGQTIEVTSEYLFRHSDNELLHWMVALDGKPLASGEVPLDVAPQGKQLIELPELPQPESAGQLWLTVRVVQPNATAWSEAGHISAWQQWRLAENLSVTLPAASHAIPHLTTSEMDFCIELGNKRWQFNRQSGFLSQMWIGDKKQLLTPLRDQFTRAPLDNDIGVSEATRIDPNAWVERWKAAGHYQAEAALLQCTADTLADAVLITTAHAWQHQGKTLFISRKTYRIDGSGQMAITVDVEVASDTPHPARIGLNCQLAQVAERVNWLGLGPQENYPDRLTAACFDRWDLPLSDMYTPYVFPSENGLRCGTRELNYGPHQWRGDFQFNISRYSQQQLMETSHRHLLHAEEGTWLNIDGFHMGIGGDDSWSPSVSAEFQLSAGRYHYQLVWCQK

[4] = NIH/3T3 fibroblast cytotoxicity, dose response, cytotoxicity control for T. cruzi growth inhibitor project, cell-based, cherry-pick samples, set 2 (AID 651817); assay type: functional; settings: NIH3T3
[5] = T. cruzi growth inhibition in host cells, dose response, cell-based, plate reader, dry powder, set 2 (AID 652275); assay type: functional
[6] = target: T2, Oxysterols receptor LXR-beta (Homo sapiens, UniProt P55055); assay type: functional, cell-based;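 also: agonist activity at LXR measured by a cell-based luminescence readout across a dose range, run as a counterscreen for daf-12 agonists; HEK293 cells with Gal4-LXR fusion and GAL4-driven luciferase reporter; potency for activation of Gal4-LXR reporter so compounds are agonists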
T2 sequence (P55055 whole entry): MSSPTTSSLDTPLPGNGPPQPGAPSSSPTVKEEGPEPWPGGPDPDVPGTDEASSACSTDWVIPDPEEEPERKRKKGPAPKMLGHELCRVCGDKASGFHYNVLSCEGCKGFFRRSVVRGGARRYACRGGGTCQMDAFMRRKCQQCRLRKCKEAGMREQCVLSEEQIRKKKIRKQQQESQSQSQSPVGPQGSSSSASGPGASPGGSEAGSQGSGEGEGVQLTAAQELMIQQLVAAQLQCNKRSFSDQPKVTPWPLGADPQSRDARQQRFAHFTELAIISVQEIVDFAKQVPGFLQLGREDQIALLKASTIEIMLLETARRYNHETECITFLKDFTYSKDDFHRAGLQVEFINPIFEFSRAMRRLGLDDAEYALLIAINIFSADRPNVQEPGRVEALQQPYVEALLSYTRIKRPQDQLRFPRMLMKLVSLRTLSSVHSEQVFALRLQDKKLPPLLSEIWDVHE

[7] = HEK293T cytotoxicity, dose response, cytotoxicity control for miR-122 modulator project, cell-based, activator set, cherry-pick (AID 720690); assay type: functional;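 also: HEK293T human cells scored for general mammalian cytotoxicity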

Chain of Galanin receptor type 3 (O60755 whole entry): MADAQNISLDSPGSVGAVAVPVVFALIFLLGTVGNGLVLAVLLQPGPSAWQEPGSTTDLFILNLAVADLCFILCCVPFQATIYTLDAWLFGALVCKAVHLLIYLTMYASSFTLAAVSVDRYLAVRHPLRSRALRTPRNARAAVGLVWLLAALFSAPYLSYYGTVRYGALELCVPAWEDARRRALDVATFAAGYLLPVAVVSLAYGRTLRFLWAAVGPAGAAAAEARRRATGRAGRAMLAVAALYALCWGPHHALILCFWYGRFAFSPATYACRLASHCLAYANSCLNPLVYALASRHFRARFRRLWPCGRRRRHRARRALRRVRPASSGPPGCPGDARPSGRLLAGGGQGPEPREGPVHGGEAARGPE

For `COc1ccc(CN2CCC(C(=O)Nc3ccc(Oc4ccccc4)nc3)CC2)cc1F`, the IC50 (Galanin receptor type 3) was 3.56 µM (active) and the EC50 (cells) was > 29.9 µM (inactive).

For `Cc1cc(C(=O)OCC(=O)NC(=O)c2cccn2C)c2ccccc2n1`, the IC50 (Beta-lactamase [1]) was > 59.6 µM (inactive), the IC50 (Beta-lactamase [2]) was > 59.6 µM (inactive) and the IC50 (Beta-lactamase [3]) was > 59.6 µM (inactive).

In the case of `CO/N=C/c1ccc(Oc2ccc(C)cc2)nc1`, the IC50 (Beta-galactosidase) is reported as > 80 µM (inactive).

With `C[C@H]1CN([C@@H](C)CO)C(=O)c2cccc(NC(=O)c3nc4ccccc4s3)c2O[C@@H]1CN(C)Cc1ccc2c(c1)OCO2` the AC50 [4] was 9.31 µM (active).

In the case of `C[C@@H]1CN([C@@H](C)CO)C(=O)c2cccc(NC(=O)c3ccncc3)c2O[C@@H]1CN(C)Cc1ccccc1`, the AC50 [4] is reported as 39 µM (inactive).

In the case of `CC(C)N1C[C@@H](CN(C)Cc2ccc(Cl)cc2)Oc2c(NC(=O)c3ccncc3)cccc2C1=O`, the AC50 [5] is reported as 0.0045 µM (active).

In the case of `c1ccc(N=Nc2ccc(C3=NCCO3)cc2)cc1`, the EC50 [6] is reported as > 67.6 µM (inactive).

For `CCCNC(=O)C[C@@H]1CC[C@H]2[C@H](COc3ccc(NC(=O)c4ccc(C(F)(F)F)cc4)cc3C(=O)N2C)O1`, the AC50 [7] was 31.5 µM (active).
